Measured values as given in ChEMBL document CHEMBL5260820, “Discovery of novel steroidal histamine H3 receptor antagonists/inverse agonists” (Bioorg Med Chem Lett, 2017).

Experiments:
Histamine H3 receptor [1] = target: T1, Histamine H3 receptor (Homo sapiens, UniProt Q9Y5N1); experiment: Displacement of N-alpha-[methyl-3H]-methylhistamine dihydrochloride from recombinant human histamine H3 receptor expressed in CHO-K1 cells assessed as inhibition constant incubated for 30 mins by liquid scintillation analysis; assay type: cell-based
T1 sequence (Q9Y5N1 whole entry): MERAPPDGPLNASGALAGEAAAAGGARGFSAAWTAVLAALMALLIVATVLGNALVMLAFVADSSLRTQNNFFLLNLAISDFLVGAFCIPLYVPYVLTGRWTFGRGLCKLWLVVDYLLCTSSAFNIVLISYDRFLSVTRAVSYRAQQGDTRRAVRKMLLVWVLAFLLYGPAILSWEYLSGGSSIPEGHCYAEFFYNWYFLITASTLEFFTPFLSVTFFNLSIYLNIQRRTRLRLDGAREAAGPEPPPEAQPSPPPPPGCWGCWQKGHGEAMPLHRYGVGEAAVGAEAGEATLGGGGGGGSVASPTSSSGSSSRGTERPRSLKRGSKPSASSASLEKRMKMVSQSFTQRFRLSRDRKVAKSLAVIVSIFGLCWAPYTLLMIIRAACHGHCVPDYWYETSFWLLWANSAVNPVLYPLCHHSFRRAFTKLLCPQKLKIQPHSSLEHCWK

Histamine H3 receptor [2] = target: T1, Histamine H3 receptor; experiment: Inverse agonist activity at recombinant human histamine H3 receptor expressed in CHO-K1 cells preincubated for 10 mins followed by [35S]GTPgammaS addition and measured after 60 mins by TopCount NXT based scintillation analysis; assay type: cell-based
Histamine H3 receptor [3] = target: Histamine H3 receptor (Rattus norvegicus, UniProt Q9QYN8); experiment: Displacement of N-alpha-[methyl-3H]-methylhistamine dihydrochloride from Sprague-Dawley rat brain membrane histamine H3 receptor assessed as inhibition constant incubated for 30 mins by liquid scintillation counting analysis; assay type: cell membranes
Chain of Histamine H3 receptor (Rattus norvegicus, UniProt Q9QYN8) (Q9QYN8 whole entry): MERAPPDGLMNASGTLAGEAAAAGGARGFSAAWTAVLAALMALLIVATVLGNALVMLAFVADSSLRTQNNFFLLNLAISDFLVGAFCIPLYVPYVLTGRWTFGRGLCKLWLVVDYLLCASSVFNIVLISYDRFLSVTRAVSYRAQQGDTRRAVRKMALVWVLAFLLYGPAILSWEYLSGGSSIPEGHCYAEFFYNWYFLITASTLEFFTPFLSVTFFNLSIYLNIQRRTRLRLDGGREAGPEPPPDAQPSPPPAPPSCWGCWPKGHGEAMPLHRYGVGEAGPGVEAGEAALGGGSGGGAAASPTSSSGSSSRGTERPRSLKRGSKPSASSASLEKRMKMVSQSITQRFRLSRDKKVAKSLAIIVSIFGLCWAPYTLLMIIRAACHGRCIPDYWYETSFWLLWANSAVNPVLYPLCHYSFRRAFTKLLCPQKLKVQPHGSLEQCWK

Histamine H3 receptor [4] = target: T1, Histamine H3 receptor; experiment: Antagonist activity at human histamine H3 receptor expressed in CHO-K1 cells assessed as inhibition of imetit-stimulation ERK1/2 phosphorylation by ELISA analysis; assay type: cell-based
Rattus norvegicus = species: Rattus norvegicus; experiment: Displacement of [3H]quinuclidinyl benzilate from Wistar rat cortex muscarinic AChR at 1 uM by liquid scintillation counting analysis relative to control; assay type: tissue-based
[5] = target: Histamine H3 receptor (Rattus norvegicus) (UniProt Q9QYN8); experiment: Displacement of N-alpha-[methyl-3H]-methylhistamine dihydrochloride from Sprague-Dawley rat brain membrane histamine H3 receptor at 300 nM incubated for 30 mins by liquid scintillation counting analysis relative to control; assay type: cell membranes
Chain of Histamine H3 receptor (Rattus norvegicus) (Q9QYN8 whole entry): as above

Histamine H3 receptor [6] = target: T1, Histamine H3 receptor; experiment: Inverse agonist activity at recombinant human histamine H3 receptor expressed in CHO-K1 cells assessed as maximal efficacy preincubated for 10 mins followed by [35S]GTPgammaS addition and measured after 60 mins by TopCount NXT based scintillation analysis relative to control; assay type: cell-based; conditions: filed as inverse agonist, time 70.0 min
[7] = target: Estrogen receptor beta (Homo sapiens) (UniProt Q92731); experiment: Binding affinity to Estrogen receptor beta (unknown origin) at 1 uM by displacement assay relative to control
Chain of Estrogen receptor beta (Homo sapiens) (Q92731 whole entry): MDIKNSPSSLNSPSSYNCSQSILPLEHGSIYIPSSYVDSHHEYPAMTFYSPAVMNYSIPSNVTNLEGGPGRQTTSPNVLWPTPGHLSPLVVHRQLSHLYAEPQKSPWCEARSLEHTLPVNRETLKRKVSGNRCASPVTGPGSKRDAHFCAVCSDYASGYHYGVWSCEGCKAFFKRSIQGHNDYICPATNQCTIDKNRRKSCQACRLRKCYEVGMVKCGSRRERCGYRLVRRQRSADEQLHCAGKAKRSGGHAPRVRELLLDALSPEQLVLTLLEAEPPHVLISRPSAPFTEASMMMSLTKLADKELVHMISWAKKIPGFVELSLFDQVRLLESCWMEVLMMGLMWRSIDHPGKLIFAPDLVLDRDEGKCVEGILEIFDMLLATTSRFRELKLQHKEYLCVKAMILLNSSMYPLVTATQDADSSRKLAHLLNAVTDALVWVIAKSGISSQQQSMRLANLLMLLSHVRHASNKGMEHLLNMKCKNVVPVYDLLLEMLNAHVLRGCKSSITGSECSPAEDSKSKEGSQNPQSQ

[8] = target: Histamine H2 receptor (Homo sapiens) (UniProt P25021); experiment: Displacement of [3H]tiotidine from recombinant human histamine H2 receptor expressed in CHO-K1 cell membrane at 1 uM incubated for 45 mins by Scintillation counter analysis relative to control; assay type: cell membranes
Chain of Histamine H2 receptor (Homo sapiens) (P25021 whole entry): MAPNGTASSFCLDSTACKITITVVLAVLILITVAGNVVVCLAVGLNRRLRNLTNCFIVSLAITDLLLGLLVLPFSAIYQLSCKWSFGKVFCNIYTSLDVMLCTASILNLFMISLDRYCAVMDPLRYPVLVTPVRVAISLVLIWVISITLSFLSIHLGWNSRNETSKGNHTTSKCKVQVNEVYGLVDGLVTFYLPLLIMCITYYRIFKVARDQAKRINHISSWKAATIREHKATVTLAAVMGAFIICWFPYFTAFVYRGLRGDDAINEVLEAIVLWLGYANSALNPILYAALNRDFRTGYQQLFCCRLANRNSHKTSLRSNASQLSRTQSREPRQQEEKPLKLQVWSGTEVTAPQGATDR

[9] = target: T2, Estrogen receptor (Homo sapiens) (UniProt P03372); experiment: Binding affinity to Estrogen receptor alpha (unknown origin) at 1 uM by displacement assay relative to control
T2 sequence (whole entry): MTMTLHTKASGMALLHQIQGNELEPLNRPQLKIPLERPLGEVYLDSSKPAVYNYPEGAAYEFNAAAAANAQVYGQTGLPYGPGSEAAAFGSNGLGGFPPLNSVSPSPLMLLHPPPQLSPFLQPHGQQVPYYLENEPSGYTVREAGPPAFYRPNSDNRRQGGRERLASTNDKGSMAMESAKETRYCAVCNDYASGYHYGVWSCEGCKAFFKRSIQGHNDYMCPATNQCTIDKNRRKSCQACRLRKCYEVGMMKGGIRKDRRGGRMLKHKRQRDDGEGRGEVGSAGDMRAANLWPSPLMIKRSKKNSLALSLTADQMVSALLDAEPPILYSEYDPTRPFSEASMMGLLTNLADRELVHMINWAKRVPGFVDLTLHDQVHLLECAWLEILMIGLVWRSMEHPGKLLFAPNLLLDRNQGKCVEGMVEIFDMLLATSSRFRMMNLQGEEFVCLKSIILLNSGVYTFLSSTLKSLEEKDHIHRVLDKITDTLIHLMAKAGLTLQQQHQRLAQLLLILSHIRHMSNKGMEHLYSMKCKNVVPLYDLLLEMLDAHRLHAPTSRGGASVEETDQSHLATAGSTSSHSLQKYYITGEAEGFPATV

[10] = target: Histamine H4 receptor (Homo sapiens) (UniProt Q9H3N8); experiment: Displacement of [3H]histamine from human histamine H4 receptors expressed in CHO-K1 cell membrane at 1 uM incubated for 30 mins by scintillation counter analysis relative to control; assay type: cell membranes
Chain of Histamine H4 receptor (Homo sapiens) (Q9H3N8 whole entry): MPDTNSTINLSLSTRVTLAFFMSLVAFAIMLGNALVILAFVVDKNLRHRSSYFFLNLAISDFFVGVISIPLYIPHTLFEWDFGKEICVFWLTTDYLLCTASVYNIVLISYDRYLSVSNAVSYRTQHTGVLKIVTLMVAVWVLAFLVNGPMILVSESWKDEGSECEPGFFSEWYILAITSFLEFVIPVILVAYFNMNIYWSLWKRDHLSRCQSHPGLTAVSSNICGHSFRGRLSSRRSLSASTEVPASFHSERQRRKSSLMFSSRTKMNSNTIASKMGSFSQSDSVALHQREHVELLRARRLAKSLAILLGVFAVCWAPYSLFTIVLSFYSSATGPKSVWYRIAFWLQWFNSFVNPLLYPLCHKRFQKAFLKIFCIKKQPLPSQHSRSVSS

[11] = Displacement of [3H]quinuclidinyl benzilate from Wistar rat cortex muscarinic AChR assessed as inhibition constant by liquid scintillation counting analysis; assay type: tissue-based
[12] = target: Histamine H1 receptor (Homo sapiens) (UniProt P35367); experiment: Displacement of [3H]pyrilamine from recombinant human histamine H1 receptor expressed in CHO-K1 cell membrane at 1 uM incubated for 30 mins by liquid scintillation counter analysis relative to control; assay type: cell membranes
Chain of Histamine H1 receptor (Homo sapiens) (P35367 whole entry): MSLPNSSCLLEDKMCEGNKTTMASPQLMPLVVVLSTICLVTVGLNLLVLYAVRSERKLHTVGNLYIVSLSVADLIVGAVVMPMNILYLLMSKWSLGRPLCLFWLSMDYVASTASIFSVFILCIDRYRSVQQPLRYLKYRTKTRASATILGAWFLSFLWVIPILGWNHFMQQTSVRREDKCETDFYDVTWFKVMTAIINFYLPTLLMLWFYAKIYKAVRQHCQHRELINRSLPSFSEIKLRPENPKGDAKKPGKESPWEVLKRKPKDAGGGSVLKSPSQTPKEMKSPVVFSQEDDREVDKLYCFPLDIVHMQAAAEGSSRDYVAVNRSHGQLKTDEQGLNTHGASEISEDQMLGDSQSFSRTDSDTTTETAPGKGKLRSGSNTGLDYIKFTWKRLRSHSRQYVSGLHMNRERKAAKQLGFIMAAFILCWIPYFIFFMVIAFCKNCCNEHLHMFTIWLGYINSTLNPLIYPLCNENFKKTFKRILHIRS

[13] = Selectivity index, ratio of Ki for displacement of [3H]quinuclidinyl benzilate from Wistar rat cortex muscarinic AChR to Ki for N-alpha-[methyl-3H]-methylhistamine dihydrochloride from Sprague-Dawley rat brain membrane histamine H3 receptor

Structure (SMILES): CC(=O)C1CCN(CCCOc2ccc3c(c2)CC[C@@H]2[C@@H]3CC[C@]3(C)[C@@H](N4CCCC4)CC[C@@H]23)CC1
- Ki (Histamine H3 receptor [1]): 2.7 nM
- EC50 (Histamine H3 receptor [2]): 1.4 nM
- Ki (Histamine H3 receptor [3]): 7.5 nM
- IC50 (Histamine H3 receptor [4]): 14.2 nM

Structure (SMILES): CN1CCC[C@H]2[C@@H]3CC[C@H]4C[C@@H](OC(=O)CCN5CCCC5)CC[C@]4(C)[C@H]3CC[C@@]21C
- Ki (Histamine H3 receptor [1]): 10 nM
- Ki (Histamine H3 receptor [3]): 39 nM
- Activity (Rattus norvegicus): 44%

Structure (SMILES): C[C@]12CC[C@@H]3c4ccc(OCc5ccccc5)cc4CC[C@H]3[C@@H]1CC[C@@H]2N1CCCC1
- Ki (Histamine H3 receptor [1]): 216 nM
- Activity (Rattus norvegicus): 5%

Structure (SMILES): C[C@]12CC[C@@H]3c4ccc(OCCN5CCCC5)cc4CC[C@H]3[C@@H]1CC[C@@H]2N1CCCC1
- Ki (Histamine H3 receptor [1]): 1.9 nM
- EC50 (Histamine H3 receptor [2]): 0.3 nM
- Ki (Histamine H3 receptor [3]): 23.1 nM
- IC50 (Histamine H3 receptor [4]): 29 nM
- Activity (Rattus norvegicus): 69%

Structure (SMILES): C[C@H]1[C@H]2CC[C@H]3[C@@H]4CC=C5C[C@@H](N(C)C)CC[C@]5(C)[C@H]4CC[C@]23CN1C
- Activity [5]: 34%
- Activity (Rattus norvegicus): 84%

Structure (SMILES): S=C(NC1CCCCC1)N1CCC(c2cnc[nH]2)CC1 [THIOPERAMIDE]
- Ki (Histamine H3 receptor [3]): 23 nM
- Emax (Histamine H3 receptor [6]): 50%

Structure (SMILES): C[C@]12CC[C@@H]3c4ccc(OCc5ccncc5)cc4CC[C@H]3[C@@H]1CC[C@@H]2N1CCCC1
- Ki (Histamine H3 receptor [1]): 0.87 nM
- Ki (Histamine H3 receptor [3]): 7.3 nM
- Activity (Rattus norvegicus): 51%

Structure (SMILES): C[C@]12CC[C@@H]3c4ccc(OCCCN5CCCC5)cc4CC[C@H]3[C@@H]1CC[C@@H]2N1CCCC1
- Activity [7]: 26%
- Ki (Histamine H3 receptor [1]): 0.6 nM
- EC50 (Histamine H3 receptor [2]): 0.1 nM
- Activity [8]: 44%
- Ki (Histamine H3 receptor [3]): 2.4 nM
- Activity [9]: 19%
- IC50 (Histamine H3 receptor [4]): 6.1 nM
- Activity [10]: 36%
- Ki [11]: 110 nM
- Activity [12]: 64%
- Activity (Rattus norvegicus): 74%

Structure (SMILES): C[C@H]1CCCN1CCCOc1ccc2c(c1)CC[C@@H]1[C@@H]2CC[C@]2(C)[C@@H](N3CCCC3)CC[C@@H]12
- Ki (Histamine H3 receptor [1]): 0.3 nM
- EC50 (Histamine H3 receptor [2]): 0.6 nM
- Ki (Histamine H3 receptor [3]): 5.6 nM
- IC50 (Histamine H3 receptor [4]): 11.6 nM
- Ratio Ki [13]: 22
- Ki [11]: 122 nM
- Activity (Rattus norvegicus): 76%

Structure (SMILES): CC1CCCN1CCCOc1ccc2c(c1)CC[C@@H]1[C@@H]2CC[C@]2(C)[C@@H](N3CCCC3)CC[C@@H]12 (mixture of isomers)
- Ki (Histamine H3 receptor [1]): 0.5 nM
- EC50 (Histamine H3 receptor [2]): 0.4 nM
- Ki (Histamine H3 receptor [3]): 3.6 nM
- IC50 (Histamine H3 receptor [4]): 12.1 nM
- Ratio Ki [13]: 62
- Ki [11]: 224 nM
- Activity (Rattus norvegicus): 69%

Structure (SMILES): C[C@]12CC[C@@H]3c4ccc(OCCCN5CCC(C(N)=O)CC5)cc4CC[C@H]3[C@@H]1CC[C@@H]2N1CCCC1
- Ki (Histamine H3 receptor [1]): 7 nM
- EC50 (Histamine H3 receptor [2]): 3.9 nM
- Ki (Histamine H3 receptor [3]): 3.1 nM
- IC50 (Histamine H3 receptor [4]): 3 nM
- Activity (Rattus norvegicus): 37%

Structure (SMILES): C[C@@H]1Cc2cc(OCCCN3CCCC3)ccc2[C@H]2CC[C@]3(C)[C@@H](N4CCCC4)CC[C@H]3[C@H]12
- Ki (Histamine H3 receptor [1]): 1.2 nM
- EC50 (Histamine H3 receptor [2]): 0.2 nM
- Ki (Histamine H3 receptor [3]): 18.3 nM
- IC50 (Histamine H3 receptor [4]): 12 nM
- Activity (Rattus norvegicus): 72%
